The source of these data is US12685724B2, “Antidepressant therapy” (ICHILOV TECH LTD., priority 2020, dated 2026).

Series [1] has as its system patients suffering from post-stroke depression (PSD). As to the kind of experiment: Clinical study of maraviroc in patients suffering from post-stroke depression (PSD). It is filed as in vivo, human. As for the experimental part:
A clinical study to evaluate the safety, tolerability and efficacy of maraviroc in patients suffering from post-stroke depression (PSD) was performed as follows:
Ten men and women aged 50 to 86 years who experience stroke, i.e., cerebral infarction or transient ischemic attack (TIA) prior to the initiation of the study were enrolled to the study. These subjects also experienced a major depressive episode that develops within 12 months from the stroke/TIA. Clinical diagnosis of stroke was performed according to the World Health Organization Monica Project.
Exclusion criteria comprise e.g. 1) significant acute neurologic illness including: impaired consciousness, Parkinson's disease, Huntington's chorea, progressive supranuclear paralysis, brain tumor, subdural hematoma, multiple sclerosis, hydrocephalus, Binswanger's disease, or severe aphasia, 2) patients diagnosed with dementia or significant cognitive impairment as defined by a MoCA score <20 at screening, or other neurological conditions (multiple sclerosis, Parkinson's disease, epilepsy, Huntington's chorea, brain tumor, subdural hematoma, multiple sclerosis, hydrocephalus, or Binswanger's disease), 3) positive serology for Hepatitis B or C; or for HIV.
Each subject received 300 mg maraviroc daily or 150 mg daily for 10 weeks. Post-treatment follow-up was conducted for 8 weeks after the last dose of Maraviroc. During the 10 weeks of maraviroc treatment the subjects were evaluated every two weeks, and during the 8 weeks of follow-up the subjects were evaluated at the 4th and 8th week after the last dose of maraviroc.
The subjects were evaluated for the efficacy of maraviroc by assessing the improvement in depressive symptoms determined by a change from baseline (i.e., Day 1 pre-dose) in the Montgomery-Asberg Depression Rating Scale (MADRS) total score. Other assessments included, for example, assessment of depressive symptoms by the 16-item Quick Inventory of Depressive Symptomatology-Self Report (QIDS-SR16); assessment of remission, defined as a MADRS total score ≤10; assessment of response, defined as a ≥50% reduction from baseline in MADRS total score; evaluation of symptoms of anxiety as assessed by the Generalized Anxiety Disorder 7-item Scale (GAD-7)—each item is rated on a 4-point scale (0 to 3), with the total score range from 0-21 (higher scores indicating more anxiety); and evaluation of cognitive status, as assessed by cognitive score based on repeatable computerized battery of cognitive tests (Neurotrax) and Montreal Cognitive Assessment (MoCA).
Additional assessments include e.g. the clinical global impression-improvement (CGI-I), a 7 point scale that requires the clinician to assess how much the patient's illness has improved or worsened relative to a baseline state at the beginning of the intervention; the clinical global impression-severity (CGI-S), which evaluates the severity of psychopathology from 1 to 7, and provides an overall clinician-determined summary measure that takes into account all available information, including knowledge of the subject's history, psychosocial circumstances, symptoms, behavior, and the impact of the symptoms on the subject's ability to function; Patient Global Impression scales, commonly used measures of symptom severity, treatment response and the efficacy of treatments; the patient global impression-severity (PGI-S), that provides an overall patient-rated summary measure that assesses the severity of the subject's MDD; the patient global impression of change (PGI-C) which provides an overall patient-rated summary that assesses subject perception of change in their MDD since starting study treatment; the EuroQol Group; 5 dimension (EQ-5D) which is a standardized 2-part instrument for use as a measure of health outcome, primarily designed for self-completion by respondents. […]

The subject of series [2] is subjects with CCR5-tropic HIV-1. As to conditions: cited from earlier work.
The subject of series [3] is simian immunodeficiency virus (SIV)-mediated CNS disease. The settings on record: rhesus macaques; cited from earlier work.
Another series has as its system hemiparkinsonian monkeys. As to conditions: cited from earlier work.

`Cc1nnc(C(C)C)n1[C@@H]1C[C@H]2CC[C@@H](C1)N2CC[C@H](NC(=O)C1CCC(F)(F)CC1)c1ccccc1` [maraviroc]: the “effect on anxiety symptoms” value in series [1] (PSD patients, maraviroc 300 mg daily, GAD-7) was “effective in reducing anxiety symptoms”. The “side effects reported by the participants during the study” value in series [1] (PSD patients, maraviroc 300 mg once daily oral) was 1 transient impotence, 1 severe constipation (drug-unrelated). In series [1] (PSD patients, maraviroc 300 mg once daily oral, 10 weeks, initial MADRS about 35-40), the “MADRS score following 10 weeks of treatment” value is 5-10. In addition, the “MADRS score, best outcome (normal/symptom-absent, remission)” value in series [1] (PSD patients, maraviroc 300 mg once daily oral, initial MADRS >34) is less than 7. Also, the “GAD-7 at data collection” value was determined as 10 in series [1] (Patient 1, 10 weeks maraviroc 300 mg daily, add-on therapy, GAD-7 at admission 17 (severe)); 6 in series [1] (Patient 2, 10 weeks maraviroc 300 mg daily, add-on therapy, GAD-7 at admission 6 (mild)); 7 in series [1] (Patient 3, week 7 of maraviroc 300 mg daily, add-on therapy, GAD-7 at admission 8 (mild)); 8 in series [1] (Patient 4, week 4 of maraviroc 300 mg daily, monotherapy, GAD-7 at admission 14 (moderate)). For the same molecule, the “CGI severity (CGI-S) after four weeks of treatment” value in series [1] (Patient 4, maraviroc monotherapy 300 mg daily, CGI=5 (markedly ill) at admission) is reported as 3. In series [1] (all 4 PSD patients, maraviroc 300 mg once daily oral, 4-10 weeks), the “depressive symptoms on quick inventory of depressive symptoms-self report (QIDS-SR)” value is given as “All patients improved their depressive symptoms”. Also, in series [1] (all 4 PSD patients, maraviroc 300 mg once daily oral, 4-10 weeks, initial MADRS about 35-40 (>34, severe)), the “MADRS score after treatment” value was less than 20. Also, the “time from first dose to beginning of treatment effects (time to response), depressive scores evaluated by senior psychiatrist” value in series [1] (all 4 PSD patients, maraviroc 300 mg once daily oral, add-on (patients 1-3) or monotherapy (patient 4)) is on record as 1-2 weeks. For the same molecule, in series [1] (all 4 PSD patients, self-report depressive scores, maraviroc 300 mg once daily oral), the “time from first dose to beginning of self-reported treatment effect” value is given as 1-2 weeks. Further, in series [1] (human PSD patients), the safety and tolerability entry is “well-tolerated without safety concerns”. For the same molecule, in series [2] (pooled data from two trials in subjects with CCR5-tropic HIV-1), the “potential treatment-emergent adverse events” value is “Depressive disorders and anxiety symptoms”. In series [2] (treatment-experienced subjects), the “most common adverse events, at higher frequency compared with placebo” value is “upper respiratory tract infections, cough, pyrexia, rash, and dizziness”. In addition, in series [3], the “SIV-mediated CNS disease (SIV RNA in CSF and brain, CD68 immunostaining, axonal APP immunostaining)” value is on record as “inhibited simian immunodeficiency virus (SIV)-mediated CNS disease”. Besides, in the series with hemiparkinsonian monkeys, the “effect on the nigrostriatum” value is “protects the nigrostriatum”. Besides, in the series with hemiparkinsonian monkeys, the “infiltration of T cells into the central nervous system” value is “attenuates the infiltration of T cells into the central nervous system”.
